Source: US20080076824A1, “Compounds That Inhibit Replication Of Human Immunodeficiency Virus” (priority 2004, published 2008)
In brackets after ≈: the same amount, converted by molar mass. Read-outs that look alike come from different tables or passages of the source. Non-standard residues stand in square brackets, D forms with d. Residues, ends and D or L forms follow the SMILES beside them. pGlu = O=C1CC[C@@H](C(=O)O)N1

Tests used:
HEL cell cultures = experiment: Cytotoxicity in HEL cell cultures (cell morphology); settings: alteration of normal cell morphology
Vaccinia virus = experiment: microbe, parasite or virus in culture; settings: Orthopoxvirus vaccinia, HEL, read-out: Minimum inhibitory concentration Vaccinia virus
[1] = tested on: Herpes simplex virus-1 (KOS); experiment: microbe, parasite or virus in culture; settings: Human alphaherpesvirus 1, HEL, read-out: Minimum inhibitory concentration Herpes simplex virus-1 (KOS)
[2] = tested on: Herpes simplex virus-2 (G); experiment: microbe, parasite or virus in culture; settings: Human alphaherpesvirus 2, HEL, read-out: Minimum inhibitory concentration Herpes simplex virus-2 (G)
HeLa cell cultures = experiment: Cytotoxicity in HeLa cell cultures (cell morphology); settings: alteration of normal cell morphology
Coxsackie virus B4 [3] = experiment: Antiviral activity in HeLa cell cultures, Coxsackie virus B4; type: cell-based; settings: Enterovirus B, B4, reduces virus-induced cytopathogenicity by 50%, read-out: Minimum inhibitory concentration Coxsackie virus B4
Method: (§1) The cytotoxicity and antiviral activity of various concentrations of G-NH2 and GPG-NH2 were evaluated in cell cultures that were infected with various types of viruses. Conventional host cell culture, viral infection, and infectivity analysis for each different type of cell and virus were followed. Compounds that were known to inhibit replication of the particular types of viruses analyzed were used as controls.

[4] = tested on: Herpes simplex virus-1 TK^− KOS ACV^r; experiment: microbe, parasite or virus in culture; settings: Human alphaherpesvirus 1, HEL, read-out: Minimum inhibitory concentration Herpes simplex virus-1 TK^− KOS ACV^r
Reovirus-1 = experiment: organism not typed; settings: Vero, read-out: Minimum inhibitory concentration Reovirus-1
Punta Toro virus = experiment: microbe, parasite or virus in culture; settings: Vero, read-out: Minimum inhibitory concentration Punta Toro virus
[5] = tested on: Vesicular stomatitis virus; experiment: microbe, parasite or virus in culture; settings: HeLa, read-out: Minimum inhibitory concentration Vesicular stomatitis virus
Vero cell cultures = experiment: Cytotoxicity in Vero cell cultures (cell morphology); settings: alteration of normal cell morphology
[6] = tested on: Respiratory syncytial virus; experiment: microbe, parasite or virus in culture; settings: human respiratory syncytial virus, HeLa, read-out: Minimum inhibitory concentration Respiratory syncytial virus
Sindbis virus = experiment: microbe, parasite or virus in culture; settings: Vero, read-out: Minimum inhibitory concentration Sindbis virus
[7] = tested on: Vesicular stomatitis virus; experiment: microbe, parasite or virus in culture; settings: HEL, read-out: Minimum inhibitory concentration Vesicular stomatitis virus
Coxsackie virus B4 [8] = experiment: Antiviral activity in Vero cell cultures, Coxsackie virus B4; type: cell-based; settings: Enterovirus B, B4, reduces virus-induced cytopathogenicity by 50%, read-out: Minimum inhibitory concentration Coxsackie virus B4
Method: as §1

Parainfluenza-3 virus = experiment: organism not typed; settings: Vero, read-out: Minimum inhibitory concentration Parainfluenza-3 virus
HIV-1 (IIIB) [9] = experiment: microbe, parasite or virus in culture; settings: Human immunodeficiency virus 1, IIIB, CCRF-CEM
[10] = Cytotoxicity (CC50) in C8166 cells; type: cell-based; settings: human, C8166 cells
HIV-2 (ROD) = experiment: microbe, parasite or virus in culture; type: cell-based
Method: Human T-lymphocytic CEM cells (4.5×10^5 cells per ml) were suspended in fresh cell culture medium and infected with HIV-1 (IIIB and NL4.3) or HIV-2 (ROD or EHO) at 100 CCID50 (1 CCID50 being the virus dose infective for 50% of the cell cultures) per ml of cell suspension. Then, 100 μl of the infected cell suspension were transferred to microplate wells, mixed with 100 μl of appropriate (freshly prepared) dilutions of the test compounds (i.e., at final concentrations of […]), and were further incubated at 37° C. After 4 to 5 days, giant cell formation was recorded microscopically in the CEM cell cultures. […] (See Table 1).
(§2) MT-4, C8166 or CEM cells (4 to 5×10^5 cells per ml) were suspended in fresh culture medium (RPMI-1640 medium supplemented with 10% fetal bovine serum (FBS) (BioWittaker Europe, Verviers, Belgium), 2 mM L-glutamine and […] NaHCO3). Subsequently, the cells were infected with HIV-1 (IIIB) or HIV-2(ROD) at ˜100 CCID50 (1 CCID50 being the dose infective for 50% of the cell cultures) per ml of cell suspension. Then, 100 μl of the infected cell suspension were transferred to 96-well microplate wells, mixed with 100 μl of the appropriate (5-fold) dilutions of the test compounds and further incubated at 37° C. After 4 to 5 days, giant cell formation was recorded microscopically in the CEM and C8166 cell cultures. The MT-4 cell cultures were treated with trypan blue and the number of viable cells was determined.

human PBMC = experiment: Mitogenic activity assay, [3H]dThd incorporation in human PBMC with or without PHA; type: cell-based; settings: concentrations up to 200 μg/ml, absence of PHA
Method: The mitogenic activity assay was conducted as follows. Human PBMC were isolated from buffy coats and brought in RPMI-1640 cell culture medium supplemented with 10% FCS and 2 mM L-glutamine. The cell cultures were exposed to several concentrations of the test compounds for 3 days in the absence or presence of PHA (phytohemagglutinin) (Murex Biotech Ltd., Dartford, UK) at 2 μg/ml. Subsequently, 0.25 μCi [CH3^−3H]dThd was added and, after 20 hr incubation at 37° C., the cells were precipitated in the presence of 10% TCA and the precipitate was washed twice with 10% TCA, twice with 5% TCA and once with 70% ethanol. The precipitate, containing [^3H]DNA, was then examined for radioactivity in a liquid scintillation counter.

in vitro = settings: human
[11] = Cytotoxicity (CC50) in MT-4 cells; type: cell-based; settings: human, MT-4 cells
HIV-2(ROD) = experiment: microbe, parasite or virus in culture
Method: as §2

HIV-1 (IIIB) [12] = experiment: microbe, parasite or virus in culture; settings: Human immunodeficiency virus 1, IIIB
Method: as §2

[13] = target: T1, dipeptidylpeptidase activity associated with BS (Bos taurus, UniProt P81425); experiment: Inhibition of dipeptidylpeptidase activity of fetal bovine serum (substrate GP-pNA); type: biochemical; settings: read-out: 50% inhibitory concentration (IC50)
T1 construct: from tissue; host or cells: fetal bovine serum
T1 sequence (P81425 38-765 limits assumed): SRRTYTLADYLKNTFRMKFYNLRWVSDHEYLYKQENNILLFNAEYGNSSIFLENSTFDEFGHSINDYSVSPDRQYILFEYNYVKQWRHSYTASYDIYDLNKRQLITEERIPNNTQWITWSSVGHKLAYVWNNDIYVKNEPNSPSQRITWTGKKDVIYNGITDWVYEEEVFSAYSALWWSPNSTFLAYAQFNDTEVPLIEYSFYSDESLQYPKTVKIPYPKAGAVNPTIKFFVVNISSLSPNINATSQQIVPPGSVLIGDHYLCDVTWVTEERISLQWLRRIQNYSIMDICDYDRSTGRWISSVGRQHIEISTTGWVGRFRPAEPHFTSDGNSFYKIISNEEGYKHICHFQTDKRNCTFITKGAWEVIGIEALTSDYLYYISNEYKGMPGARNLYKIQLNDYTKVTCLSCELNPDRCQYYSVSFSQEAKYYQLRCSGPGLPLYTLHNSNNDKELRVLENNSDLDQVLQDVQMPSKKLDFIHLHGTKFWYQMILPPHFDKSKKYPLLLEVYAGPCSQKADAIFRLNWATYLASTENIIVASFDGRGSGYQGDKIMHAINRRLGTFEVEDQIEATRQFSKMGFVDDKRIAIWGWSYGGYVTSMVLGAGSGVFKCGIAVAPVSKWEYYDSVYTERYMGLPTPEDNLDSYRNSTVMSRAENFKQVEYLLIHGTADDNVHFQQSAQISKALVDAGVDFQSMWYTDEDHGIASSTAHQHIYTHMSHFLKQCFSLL

HIV-1 (IIIB) [14] = settings: in words
[15] = target: T2, CD26/dipeptidylpeptidase IV (Homo sapiens, UniProt P27487); experiment: Conversion of GPG-NH2 to GP-OH and G-NH2 by purified CD26; type: biochemical
T2 construct: made in house; by own knowledge a natural human source (seminal plasma), not recombinant
T2 sequence (P27487 whole entry): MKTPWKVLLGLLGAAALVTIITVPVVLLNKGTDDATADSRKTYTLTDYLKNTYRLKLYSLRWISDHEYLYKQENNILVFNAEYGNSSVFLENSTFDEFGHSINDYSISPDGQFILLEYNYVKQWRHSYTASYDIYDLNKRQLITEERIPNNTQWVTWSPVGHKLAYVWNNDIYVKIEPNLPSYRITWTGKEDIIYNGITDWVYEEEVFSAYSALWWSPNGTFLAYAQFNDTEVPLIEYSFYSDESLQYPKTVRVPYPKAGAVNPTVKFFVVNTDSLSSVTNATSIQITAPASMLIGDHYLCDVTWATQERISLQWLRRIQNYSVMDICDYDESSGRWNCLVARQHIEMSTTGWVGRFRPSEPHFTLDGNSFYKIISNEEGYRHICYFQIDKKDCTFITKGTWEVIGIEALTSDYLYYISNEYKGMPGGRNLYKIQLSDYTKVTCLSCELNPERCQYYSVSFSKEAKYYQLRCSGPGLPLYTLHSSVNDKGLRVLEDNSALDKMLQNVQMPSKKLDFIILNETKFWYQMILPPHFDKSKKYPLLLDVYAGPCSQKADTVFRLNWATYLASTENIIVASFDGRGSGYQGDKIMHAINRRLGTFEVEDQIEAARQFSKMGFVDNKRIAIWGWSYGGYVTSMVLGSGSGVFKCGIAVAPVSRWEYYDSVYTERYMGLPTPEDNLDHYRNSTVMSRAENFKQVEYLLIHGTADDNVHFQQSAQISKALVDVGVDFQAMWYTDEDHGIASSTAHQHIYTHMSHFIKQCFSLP
Method: In some experiments, approximately, 100 μM GPG-NH2 was exposed to 25 units/l of purified CD26 and the mixture was incubated for up to 400 minutes at room temperature. The lymphocyte surface glycoprotein CD26/dipeptidylpeptidase IV was purified as described before. (See De Meester, J. Immunol. Methods, 189:99-105 (1996), herein expressly incorporated by reference in its entirety). At different time points, an aliquot of the reaction mixture was withdrawn and analyzed on an electrospray ion trap mass spectrometer (Esquire, Bruker, Bremen, Germany). The appearance of the dipeptide GP-OH upon release from the amino terminal end of the GPG-NH2 molecule, as well as, the disappearance of intact GPG-NH2 from the reaction mixture was determined and monitored by electrospray ion trap mass spectometric analysis at different time points (See FIG. 3). Under these experimental conditions, CD26 released GP-OH in a time-dependent manner from GPG-NH2, and virtually completely converted GPG-NH2 to GP-OH and G-NH2 within 4 to 6 hrs of the reaction.
Next, the conversion of radiolabeled [^14C]GPG-NH2 to [^14C]G-NH2 by purified CD26, fetal bovine serum (FBS), human serum (HS) and CEM cell suspensions was analyzed. […] A variety of these [^14C]GPG-NH2 concentrations were exposed to purified CD26, FBS, HS and CEM cell suspensions and the conversion to G-NH2 was analyzed. […]

HIV-2 (EHO) = tested on: HIV-2 (EHO)
Method: Human T-lymphocytic CEM cells (4.5×10^5 cells per ml) were suspended in fresh cell culture medium and infected with HIV-1 (IIIB and NL4.3) or HIV-2 (ROD or EHO) at 100 CCID50 (1 CCID50 being the virus dose infective for 50% of the cell cultures) per ml of cell suspension. Then, 100 μl of the infected cell suspension were transferred to microplate wells, mixed with 100 μl of appropriate (freshly prepared) dilutions of the test compounds (i.e., at final concentrations of […]), and were further incubated at 37° C. After 4 to 5 days, giant cell formation was recorded microscopically in the CEM cell cultures.

[16] = read-out: EC50 (CEM) HIV-1 (IIIB), Table 19
[17] = read-out: EC50 (CEM) HIV-1(IIIB), Table 20
[18] = Human immunodeficiency virus 2, CCRF-CEM, Table 19, read-out: EC50 (CEM) HIV-2 (ROD)
[19] = Human immunodeficiency virus 2, C8166, read-out: EC50 (C8166) HIV-2 (ROD), Table 19
[20] = Human immunodeficiency virus 2, C8166, read-out: EC50 (C8166) HIV-2 (ROD), Table 20
[21] = Human immunodeficiency virus 2, MT4, read-out: EC50 (MT-4) HIV-2 (ROD), Table 19
[22] = Human immunodeficiency virus 2, MT4, read-out: EC50 (MT-4) HIV-2 (ROD), Table 20
[23] = C8166, read-out: EC50 (C8166) HIV-1 (IIIB), Table 19
[24] = C8166, read-out: EC50 (C8166) HIV-1 (IIIB), Table 20
[25] = MT4, read-out: EC50 (MT-4) HIV-1 (IIIB)
[26] = MT4, read-out: EC50 (MT-4) HIV-1(IIIB)

SMILES	EC50 (Vaccinia virus)	EC50 [1]	EC50 [2]	EC50 (Coxsackie virus B4 [3])	EC50 [4]	EC50 (Reovirus-1)	EC50 (Punta Toro virus)	EC50 [5]	EC50 [6]	EC50 (Sindbis virus)	EC50 [7]	EC50 (Coxsackie virus B4 [8])	EC50 (Parainfluenza-3 virus)	EC50 (HIV-1 (IIIB) [9]; [16])	EC50 (HIV-1 (IIIB) [9]; [17])	CC50 [10]	EC50 (HIV-2 (ROD); [18])	mitogenic activity against human PBMCs (human PBMC)	CC50 at 96 hr (in vitro)	CC50 [11]	further results
O=c1[nH]c(=O)n([C@H]2C[C@H](O)[C@@H](CO)O2)cc1/C=C/Br [BVDU]	0.64 µg/mL (≈ 1.92 µM)	0.0256 µg/mL (≈ 0.0768 µM)	> 400 µg/mL	> 400 µg/mL	400 µg/mL (≈ 1200 µM)	> 400 µg/mL	> 400 µg/mL	> 400 µg/mL	> 400 µg/mL	> 400 µg/mL	400 µg/mL (≈ 1200 µM)	> 400 µg/mL	> 400 µg/mL								Minimum cytotoxic concentration (HEL cell cultures): >400 µg/mL; Minimum cytotoxic concentration (HeLa cell cultures): ≧400 μg/ml; Minimum cytotoxic concentration (Vero cell cultures): >400 µg/mL
CN1C(=O)C(C)(C)NNC1=S [Formula K]														115 µM	115 µM	896 ± 265 µM	65 ± 18 µM	non-mitogenic	≥ 1150 µM	906 ± 179 µM	EC50 (HIV-2(ROD); [19]): > 580 µM; EC50 (HIV-2(ROD); [20]): > 230 µM; EC50 (HIV-2(ROD); [21]): > 580 µM; EC50 (HIV-2(ROD); [22]): > 1000 µM; EC50 (HIV-1 (IIIB) [12]; [23]): 346 µM; EC50 (HIV-1 (IIIB) [12]; [24]): 289 ± 81 µM; EC50 (HIV-1 (IIIB) [12]; [25]): > 580 µM; EC50 (HIV-1 (IIIB) [12]; [26]): > 1000 µM
CN1C(=O)C2(CCCCC2)NNC1=S [Formula M]														97 ± 42 µM	97 ± 42 µM	488 ± 3.3 µM	48 ± 14 µM	non-mitogenic	≥ 930 µM	455 ± 4.6 µM	EC50 (HIV-2(ROD); [19]): 480 µM; EC50 (HIV-2(ROD); [20]): > 190 µM; EC50 (HIV-2(ROD); [21]): > 480 µM; EC50 (HIV-2(ROD); [22]): > 900 µM; EC50 (HIV-1 (IIIB) [12]; [23]): > 480 µM; EC50 (HIV-1 (IIIB) [12]; [24]): > 190 µM; EC50 (HIV-1 (IIIB) [12]; [25]): > 480 µM; EC50 (HIV-1 (IIIB) [12]; [26]): > 900 µM
CCC(C)C(N)C(=O)N1CCCC1 [IlePyr, L-isoleucinepyrrolidine]																					IC50 [13]: 99 µM
NC(=O)CNC(=O)[C@@H]1CCCN1C(=O)[C@@H]1CCC(=O)N1 [PyrQ-PG-NH2, cyclic pyrroglutaminylprolylglycinamide] ([pGlu]-Pro-Gly-NH2)																					inhibition of HIV replication in cell culture (HIV-1 (IIIB) [14]): ineffective; release of G-NH2 by CD26 [15]: unable to release G-NH2; EC50 (HIV-2 (ROD); 2 (ROD)): > 2000 µM; EC50 (in vitro): > 2000 µM; EC50 (HIV-2 (EHO)): > 2000 µM
NC(=O)c1ncn([C@@H]2O[C@H](CO)[C@@H](O)[C@H]2O)n1 [Ribavirin]	240 µg/mL (≈ 983 µM)	48 µg/mL (≈ 197 µM)	> 400 µg/mL	48 µg/mL (≈ 197 µM)	80 µg/mL (≈ 328 µM)	16 µg/mL (≈ 65.5 µM)	48 µg/mL (≈ 197 µM)	9.6 µg/mL (≈ 39.3 µM)	16 µg/mL (≈ 65.5 µM)	> 400 µg/mL	> 400 µg/mL	> 400 µg/mL	48 µg/mL (≈ 197 µM)								
